Literature values in US20120270783A1, “Rapid opioid detoxification” (priority 2011, published 2012).
Where two headings read alike, the source gives them in different places.

Legend:
[1] = in vivo
receptor sites = details: relative to naloxone

Compound	half-life [1]	half-life ([1]; listed as Nalmefene)	receptor sites occupied, more than naloxone (receptor sites)	time to rapid awakening after discontinuation (after maintenance of anesthesia for approximately 1-10 hours at recommended doses)	time to rapid awakening after discontinuation, usual (usually, after maintenance of anesthesia for approximately 1-10 hours)
C=C1CC[C@@]2(O)[C@H]3Cc4ccc(O)c5c4[C@@]2(CCN3CC2CC2)[C@H]1O5 [nalmefene]	10.8 h	about 10.8 hours	approximately 50%	–	–
CC(C)c1cccc(C(C)C)c1O [propofol, 2,6-diisopropyl phenol]	–	–	–	less than 20 minutes	10 to 15 min
